Converted amounts (≈) assume the structure as drawn. “Also recorded” adds a separate entry of the source. Read-outs that look alike come from different tables or passages of the source.
Assays:
P. falciparum 3D7 = tested on: P. falciparum 3D7; design: method as in PMID 37029625; settings: chloroquine-sensitive P. falciparum 3D7; read-out: IC50 antiplasmodial activity; cited from earlier work
P. falciparum K1 strain = experiment: in vitro antiplasmodial activity, parasite lactate dehydrogenase (pLDH) assay; type: cell-based, Plasmodium falciparum; settings: for antiplasmodial activity classification of pure compounds: P. falciparum K1, class by IC50; for IC50: Plasmodium falciparum, read-out: IC50 ± SD P. falciparum K1; for Selectivity index (SI): CC50 Vero cells / IC50 P. falciparum K1
Vero cells = experiment: in vitro cytotoxicity, MTT assay; type: cell-based; settings: Vero cells, toxic when CC50 < 100 µM
Protocol: (§1) The purpose of this study was to determine the cytotoxicity of crude extracts and pure compounds isolated from M. ferrea roots on Vero cells. The MTT assay was performed according to an established protocol. Briefly, Vero cells were cultured in Dulbecco’s Modified Eagle Medium (Gibco, USA) supplemented with 10% fetal bovine serum (FBS) (Sigma-Aldrich, New Delhi, India). Vero cell suspensions were seeded onto 96-well culture plates at a density of 1 × 10^4 cells per well. The seeded culture plates were incubated at 37 °C in a 5% CO2 atmosphere for 24 h to facilitate cell attachment. Subsequently, the cultured cells were exposed to the test extracts and pure compounds in triplicate for each concentration. Doxorubicin (Sigma-Aldrich, India) was used as a positive control, whereas DMSO served as a negative control. All extracts and pure compounds were dissolved in DMSO and added to the medium at a final concentration of 0.5% DMSO. Plates containing the test samples were incubated at 37 °C in a 5% CO2 atmosphere for 48 h. Following incubation, the cell culture supernatant was discarded, and 50 µL of MTT solution (5 mg/mL) (Thermo Fisher Scientific, Oregon, USA) was added to each well. The test plates were then incubated at 37 °C in a 5% CO2 atmosphere for 2 h. Subsequently, the supernatant was discarded, and 100 µL/well of DMSO was added to induce cell lysis and dissolve the formazan crystals. To estimate the reactions, absorbance was measured at 560 nm in a microplate reader, and the background absorbance at 670 nm was subtracted.

[1] = in vitro cytotoxicity, MTT assay; type: cell-based; settings: African green monkey, pure compounds and doxorubicin, 48 h, mean ± SD of three determinations; for CC50 at 48 h: Vero cells
Protocol: as §1

heme polymerization = tested on: heme polymerization; design: method as in PMID 9199506; settings: cited from earlier work
P. falciparum D6 = settings: cited from earlier work
[2] = tested on: P. falciparum FcB1/Colombia; design: method as in PMID 15474559; settings: chloroquine-resistant P. falciparum FcB1/Colombia; cited from earlier work
PfLDH = settings: cited from earlier work
[3] = K1, pure compounds and reference drugs, 72 h, mean ± SD of three determinations
[4] = ratio of IC50 against P. falciparum K1

Row | IC50 (P. falciparum K1 strain; [3]) | SMILES | antiplasmodial activity classification of pure compounds (P. falciparum K1 strain) | cytotoxicity classification of pure compounds (Vero cells) | CC50 at 48 h [1] | other results
1 | – | C=CC(C)(C)c1c2c(c(O)c3c(=O)c4ccc(O)c(O)c4oc13)C=CC(C)(C)O2 [macluraxanthone] | – | – | – | IC50 (P. falciparum 3D7): 4.28 µM
2 | 346 ± 3.51 µM | COc1ccc2oc3cccc(O)c3c(=O)c2c1 [Compound 1, 1-hydroxy-7-methoxyxanthone] | inactive | non-toxic | 195.8 ± 1.68 µM | –
3 | 164 ± 1.71 µM | COc1cccc2c(=O)c3c(O)cccc3oc12 [Compound 2, 1-hydroxy-5-methoxyxanthone] | low (low activity (IC50 100−200 µM)) | toxic (pure compounds are considered toxic to cells when the CC50 value is less than 100 µM) | 62 ± 1.18 µM | –
4 | 198 ± 2.43 µM | COc1cc(O)c2c(=O)c3cccc(O)c3oc2c1 [Compound 6, 1,5-dihydroxy-3-methoxyxanthone] | low (low activity (IC50 100−200 µM)) | non-toxic | 210.2 ± 1.74 µM | –
5 | – | COc1cccc2c1C(=O)c1c(O)c3c(c(O)c1C2=O)C[C@@](O)(C(=O)CO)C[C@@H]3O[C@H]1C[C@H](N)[C@H](O)[C@H](C)O1 [Doxorubicin, reference compound] | – | – | 3.35 ± 0.28 µM | –
6 | – | COc1cc2c(=O)c3ccc(OC)c(OC)c3oc2c(OC)c1OC [2,3,4,5,6-pentamethoxyxanthone] | – | – | – | heme polymerization inhibition (heme polymerization): no in vitro antiplasmodial activity or heme polymerization; in vitro antiplasmodial activity (P. falciparum D6; same study as pentahydroxyxanthone): no in vitro antiplasmodial activity
7 | – | O=c1c2ccc(O)c(O)c2oc2c(O)c(O)c(O)cc12 [2,3,4,5,6-pentahydroxyxanthone] | – | – | – | IC50 (heme polymerization; read-out: IC50 in vitro heme polymerization): 1.2 µM; IC50 (P. falciparum D6; chloroquine-sensitive P. falciparum D6, read-out: IC50 in vitro antiplasmodial activity): 0.4 µM
8 | 46.3 ± 1.65 µM | COc1c(O)ccc2oc3c(O)cccc3c(=O)c12 [Compound 7, 2,5-dihydroxy-1-methoxyxanthone] | moderate (moderate activity (IC50 20−100 µM)) | non-toxic | 587.9 ± 2.18 µM | Selectivity index (SI) (P. falciparum K1 strain): 12.70
9 | – | C=CC(C)(C)c1c2c(c(O)c3c(=O)c4cccc(O)c4oc13)C=CC(C)(C)O2 [caloxanthone C] | – | – | – | IC50 antiplasmodial activity [2]: 1.3 µg/mL (≈ 3.44 µM)
10 | 0.003 µM | C[C@H]1[C@H](OC(=O)CCC(=O)O)O[C@@H]2O[C@@]3(C)CC[C@H]4[C@H](C)CC[C@@H]1[C@@]24OO3 [Artesunate, artesunate, reference compound] | – | – | – | –
11 | – | CC1(C)C=Cc2c(cc(O)c3c(=O)c4ccc(O)c(O)c4oc23)O1 [isojacareubin] | – | – | – | IC50 (P. falciparum 3D7): 11.5 µM
12 | – | CCN(CC)CCCC(C)Nc1ccnc2cc(Cl)ccc12 (centres unmarked) [Chloroquine, chloroquine, reference compound] | – | – | – | IC50 (P. falciparum K1 strain; K1, 72 h): 0.32 µM; PfLDH inhibition (PfLDH): weak inhibitor
13 | 107 ± 4.41 µM | O=c1c2cccc(O)c2oc2cccc(O)c12 [Compound 4, 1,5-dihydroxyxanthone] | low (low activity (IC50 100−200 µM)) | non-toxic | 416.7 ± 1.98 µM | Selectivity index (SI) (P. falciparum K1 strain): 3.89
14 | – | O=c1c2cccc(O)c2oc2cc(O)cc(O)c12 [1,3,5-trihydroxyxanthone] | – | – | – | IC50 antiplasmodial activity [2]: 24.7 µg/mL (≈ 101 µM); IC50 (P. falciparum D6; P. falciparum D6, read-out: IC50 antiplasmodial activity): > 60 µM

Row | SMILES | IC50 (P. falciparum K1 strain; [3]) | antiplasmodial activity classification of pure compounds (P. falciparum K1 strain) | cytotoxicity classification of pure compounds (Vero cells) | CC50 at 48 h [1] | other results
15 | O=c1c2ccc(O)cc2oc2cccc(O)c12 [Compound 3, 1,6-dihydroxyxanthone] | 226.1 ± 1.32 µM | inactive | non-toxic | – | CC50 ([1]; read-out: CC50 ± SD Vero cells): 182.8 ± 1.62 µM
16 | CC1(C)C=Cc2cc3c(=O)c4c(O)cccc4oc3c(O)c2O1 [Compound 5, rheediachromenoxanthone] | 19.9 ± 0.72 µM | good (good activity (IC50 1−20 µM)) | no toxicity; also recorded: non-toxic | 112 ± 1.54 µM | fold less potent than artesunate (P. falciparum K1 strain; [4]): ~6,643.3 fold; fold less potent than chloroquine (P. falciparum K1 strain; [4]): approximately 62.3 fold; times more potent than 2,5-dihydroxy-1-methoxyxanthone (7) (P. falciparum K1 strain; [4]): approximately 2.3 times; cytotoxicity classification of pure compounds (Vero cells; listed as Rheediachromenoxanthone): non-toxicity

— article PMC11270968, “Antiplasmodial potential of isolated xanthones from Mesua ferrea Linn. roots: an in vitro and in silico molecular docking and pharmacokinetics study” (BMC Complementary Medicine and Therapies, 2024)
